# Reference: patent US8680282B2, “Cyclic inhibitors of carnitine palmitoyltransferase and treating cancer” (University Health Network, priority 2007, dated 2014)
# Biological target: T1, human CPT1A (Homo sapiens, UniProt P50416)
# T1 construct: made in house; host or cells: Saccharomyces cerevisiae (pESC-trp) or cultured mammalian cells (pCDNA3.1); mitochondrial extract
# T1 sequence (P50416 1-773): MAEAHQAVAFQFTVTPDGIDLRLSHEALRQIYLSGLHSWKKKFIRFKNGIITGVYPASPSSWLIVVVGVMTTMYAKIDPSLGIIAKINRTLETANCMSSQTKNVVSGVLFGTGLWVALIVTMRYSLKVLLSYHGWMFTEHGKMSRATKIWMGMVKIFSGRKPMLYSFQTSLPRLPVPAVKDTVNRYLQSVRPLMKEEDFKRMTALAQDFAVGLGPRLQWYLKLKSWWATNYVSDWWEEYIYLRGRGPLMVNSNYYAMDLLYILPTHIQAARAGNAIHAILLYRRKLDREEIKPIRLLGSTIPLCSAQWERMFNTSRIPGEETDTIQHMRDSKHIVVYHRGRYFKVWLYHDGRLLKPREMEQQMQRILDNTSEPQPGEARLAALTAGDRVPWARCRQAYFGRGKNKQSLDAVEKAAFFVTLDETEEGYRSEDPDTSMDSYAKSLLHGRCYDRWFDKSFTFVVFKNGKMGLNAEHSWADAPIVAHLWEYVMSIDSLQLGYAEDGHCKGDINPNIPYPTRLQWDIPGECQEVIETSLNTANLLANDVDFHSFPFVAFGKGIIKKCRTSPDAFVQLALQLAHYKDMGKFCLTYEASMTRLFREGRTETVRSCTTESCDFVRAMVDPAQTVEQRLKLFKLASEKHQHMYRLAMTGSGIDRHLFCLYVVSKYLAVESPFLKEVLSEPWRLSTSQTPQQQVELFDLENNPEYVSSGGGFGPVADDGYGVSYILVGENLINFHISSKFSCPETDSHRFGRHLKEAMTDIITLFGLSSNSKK
# Assay: Human CPT1A LC/MS assay
# Type: biochemical
# Settings: human CPT1A LC/MS assay, dose response format
# Text: Nucleotide sequences encoding human CPT1 enzymes were individually cloned into the yeast expression vector pESC-trp at the Cla1 (5′ terminus) and Pac1 (3′ terminus) restriction sites by PCR amplification of the open reading frame using oligonucleotide primers designed to encode the wild-type CPT1 protein sequence. Standard molecular biology techniques were used to transform and express the CPT1 proteins in the yeast Saccharomyces cerevisiae. The yeast cells were lysed by enzymatic degradation of the cell wall by Zymolase, and the mitochondria were isolated by standard biochemical techniques. The integrity of the isolated mitochondria was monitored by determining the activity of succinate dehydrogenase in the mitochondrial preparations. The mitochondrial extracts were stored at −80° C. in buffer containing 10 mM HEPES pH 7.4 and 250 mM sucrose.
# Human CPT1 (A, B, C) genes were additionally cloned into the pCDNA3.1 vector individually for expression in cultured mammalian cells. Cells expressing the exogenous CPT1A were identified and grown under standard conditions. Mammalian cells were harvested, and mitochondrial extracts prepared using standard biochemical methods. The mitochondrial extracts were stored at −80° C. in buffer containing 10 mM HEPES pH 7.4 and 250 mM sucrose.
# Assays were performed in 96-well plate format. Each 100 μL reaction contained 40 mM KCl, 50 mM TrisHCl pH 7.5, and 250 mM mannitol (Assay Buffer), and 1.6 μg protein of an extract, 20 μM palmitoyl-CoA, 50 μM L-carnitine, and 10 ug/mL BSA. Reactions were incubated at room temperature and stopped after 10 minutes by extraction with 200 μL of water saturated n-butanol containing myristoyl carnitine (500 nM) as an internal standard. The samples were thoroughly mixed, and the phases separated by centrifugation. Samples were prepared for analysis with a 10 fold dilution of the n-butanol phase containing the reaction product palmitoyl carnitine into a 50:50 (acetonitrile:water) solvent for analysis. 5 μL of prepared sample was separated on a Phenomenex Jupiter 5μ C4 reverse-phase column using an Agilent 1100 HPLC with a gradient from 50% acetonitrile (0.5% acetic acid) to 100% acetonitrile and quantified by detection with a Bruker Esquire 3000plus mass spectrometer. The abundance of the palmitoyl carnitine product was determined relative to the internal standard and the actual quantity of palmitoyl carnitine can be determined from a standard curve prepared using the n-butanol solution containing the internal standard.
# Compounds were evaluated in two formats, a screening format, and a dose response format. The screening format was performed by adding 25 μL compound in 20% DMSO and Assay Buffer to 25 μL of extract containing […] and Assay Buffer, followed by a 10 minute incubation at room temperature. 50 μL of 40 μM palmitoyl-CoA in Assay Buffer was added to the reaction mixture, mixed and incubated for 10 minutes at room temperature. A negative control for activity was also performed where the carnitine was omitted from the reaction. A positive control for activity was also performed by omitting compound from the solution containing 20% DMSO and Assay Buffer. The reaction mixture was extracted and analyzed as described above. The inhibition by compound was determined by comparing the control relative activity to the relative activity observed in wells containing the compound. Relative activity was determined by subtracting the relative intensity (area palmitoyl carnitine/area myristoyl carnitine) observed in the negative control from the relative intensity observed in the experimental well, and dividing by the relative activity observed in the positive control.
# [formula] Compound characterization by dose response format was performed using the above described assay conditions and a 16 point compound titration in 2 fold compound dilution steps. The DMSO concentration was kept constant at 20% (v/v) for all compound concentrations.
row,SMILES,IC50
1,"CCCCCCCCc1ccc(NC(=O)NC2(CC(=O)O)CC[N+](C)(C)CC2)cc1 [Example S2, 4-(Carboxymethyl)-1,1-dimethyl-4-(3-(4-octylphenyl)ureido)piperidinium 2,2,2-trifluoroacetate]",10 to 100 µM
2,"CCCCCCCCc1ccc(NS(=O)(=O)NC2(CC(=O)O)CC[N+](C)(C)CC2)cc1 [Example S8, 4-(carboxymethyl)-1,1-dimethyl-4-(N-(4-octylphenyl)sulfamoylamino)piperidinium 2,2,2-trifluoroacetate]",1 to 10 µM
3,"C[N+]1(C)CCC(CC(=O)O)(NC(=O)c2ccc(CCc3ccccc3)o2)CC1 [Example S5, 4-(Carboxymethyl)-1,1-dimethyl-4-(5-phenethylfuran-2-carboxamido)-piperidinium 2,2,2-trifluoroacetate]",1 to 10 µM
4,"CCCCCCCCCCc1ccc(C(=O)NC2(CC(=O)O)CCN(C)C2)cc1 (stereo not drawn) [Example S21, 3-(carboxymethyl)-3-(4-decylbenzamido)-1-methylpyrrolidinium 2,2,2-trifluoroacetate]",10 to 100 µM
5,"CCCCCc1ccc(S(=O)(=O)NC2(CC(=O)O)CN(C)C2)cc1 [Example S27, 3-(carboxymethyl)-1-methyl-3-(4-pentylphenylsulfonamido)azetidinium 2,2,2-trifluoroacetate]",10 to 100 µM
6,"CCCCCCCCc1ccc(NC(=O)NC2(CC(=O)O)CCC[N+](C)(C)C2)cc1 (stereo not drawn) [Example S10, 3-(carboxymethyl)-1,1-dimethyl-3-(3-(4-octylphenyl)ureido)-piperidinium 2,2,2-trifluoroacetate]",10 to 100 µM
7,"CCCCCCCCc1ccc(NC(=O)NC2(CC(=O)O)C[N+](C)(C)C2)cc1 [Example S24, 3-(Carboxymethyl)-1,1-dimethyl-3-(3-(4-octylphenyl)ureido)azetidinium 2,2,2-trifluoroacetate]",10 to 100 µM
8,"CCCCCc1ccc(S(=O)(=O)NC2(CC(=O)O)CC[N+](C)(C)C2)cc1 (stereo not drawn) [Example S20, 3-(carboxymethyl)-1,1-dimethyl-3-(4-pentylphenylsulfonamido)-pyrrolidinium 2,2,2-trifluoroacetate]",1 to 10 µM
9,"O=C(O)CC1(NC(=O)c2ccc(C#Cc3ccccc3)o2)CNC1 [Example S26, 3-(carboxymethyl)-3-(5-(phenylethynyl)furan-2-carboxamido)-azetidinium 2,2,2-trifluoroacetate]",100 to 1000 µM
10,"CCCCCCCCc1ccc(NC(=O)NC2(CC(=O)O)CCC[NH+](C)C2)cc1 (stereo not drawn) [Example S9, 3-(Carboxymethyl)-1-methyl-3-(3-(4-octylphenyl)ureido)piperidinium 2,2,2-trifluoroacetate]",10 to 100 µM
11,"CCCCCCCCc1ccc(N(C)S(=O)(=O)NC2(CC(=O)O)CCC[N+](C)(C)C2)cc1 (stereo not drawn) [Example S30, 3-(carboxymethyl)-1,1-dimethyl-3-(N-methyl-N-(4-octylphenyl)-sulfamoylamino)piperidinium 2,2,2-trifluoroacetate]",10 to 100 µM
12,"CCCCCCCCc1ccc(NS(=O)(=O)NC2(CC(=O)O)CCCN(C)C2)cc1 (stereo not drawn) [Example S15, 3-(carboxymethyl)-1-methyl-3-(N-(4-octylphenyl)sulfamoylamino)-piperidinium 2,2,2-trifluoroacetate]",10 to 100 µM
13,"CCCCCCCCc1ccc(NS(=O)(=O)NC2(CC(=O)O)CCN(C)CC2)cc1 [Example S7, 4-(carboxymethyl)-1-methyl-4-(N-(4-octylphenyl)sulfamoylamino)-piperidinium 2,2,2-trifluoroacetate]",10 to 100 µM
14,"CCCCCc1ccc(S(=O)(=O)NC2(CC(=O)O)C[N+](C)(C)C2)cc1 [Example S29, 3-(carboxymethyl)-1,1-dimethyl-3-(4-pentylphenylsulfonamido)-azetidinium 2,2,2-trifluoroacetate]",10 to 100 µM
15,"CCCCCc1ccc(S(=O)(=O)NC2(CC(=O)O)CCN(C)CC2)cc1 [Example S3, 4-(carboxymethyl)-1-methyl-4-(4-pentylphenylsulfonamido)piperidinium 2,2,2-trifluoroacetate]",10 to 100 µM
16,"C[N+]1(C)CCC(CC(=O)O)(NC(=O)c2ccc(C#Cc3ccccc3)o2)CC1 [Example S6, 4-(Carboxymethyl)-1,1-dimethyl-4-(5-(phenylethynyl)furan-2-carboxamido)-piperidinium 2,2,2-trifluoroacetate]",100 to 1000 µM
17,"CCCCCCCCc1ccc(NC(=O)NC2(CC(=O)O)CNC2)cc1 [Example S23, 3-(carboxymethyl)-3-(3-(4-octylphenyl)ureido)azetidinium 2,2,2-trifluoroacetate]",1000 to 2500 µM
18,"CCCCCCCCc1ccc(NS(=O)(=O)NC2(CC(=O)O)CCC[N+](C)(C)C2)cc1 (stereo not drawn) [Example S16, 3-(carboxymethyl)-1,1-dimethyl-3-(N-(4-octylphenyl)sulfamoylamino)-piperidinium 2,2,2-trifluoroacetate]",1 to 10 µM
19,"CCCCCCCCc1ccc(NC(=O)NC2(CC(=O)O)CC[N+](C)(C)C2)cc1 (stereo not drawn) [Example S18, 3-(carboxymethyl)-1,1-dimethyl-3-(3-(4-octylphenyl)ureido)-pyrrolidinium 2,2,2-trifluoroacetate]",10 to 100 µM
20,"CCCCCCCCCCc1ccc(C(=O)NC2(CC(=O)O)CC[N+](C)(C)C2)cc1 (stereo not drawn) [Example S22, 3-(Carboxymethyl)-3-(4-decylbenzamido)-1,1-dimethylpyrrolidinium 2,2,2-trifluoroacetate]",1 to 10 µM
21,"CCCCCc1ccc(S(=O)(=O)NC2(CC(=O)O)CC[N+](C)(C)CC2)cc1 [Example S4, 4-(Carboxymethyl)-1,1-dimethyl-4-(4-pentylphenylsulfonamido)piperidinium 2,2,2-trifluoroacetate]",≤ 1 µM
